Assay results published in patent US11225505B2, “Antimicrobial polymyxin derivative compounds” (MONASH UNIVERSITY, priority 2015, dated 2022).
Converted amounts (≈) assume the structure as drawn. Where a SMILES comes first, the peptide text is derived from it. Bridges are numbered along the chain shown (N, C = ends). [ ]: non-standard residue; d: D form. The star is where a group is joined. X14 = O=C(c1ccc(C(F)(F)F)cn1)*; Dab = NCC[C@H](N)C(=O)O; Abu = CC[C@H](N)C(=O)O; Dap = NC[C@H](N)C(=O)O

How the values were obtained:
mouse kidney = assay: Nephrotoxicity in a mouse model (kidney histology); format: in vivo; details: mice (n=3), subcutaneous 12 mg/kg free base every 2 h, 6 doses in one day
Experimental: Polymyxin B sulphate and colistin sulphate were supplied by Betapharma (Shanghai Co., Ltd, China). Stock solutions of compounds in saline (5 mg base/mL) were stored at 4° C. before use. Mice (n=3) were subcutaneously administered with the compound at 12 mg/kg of the free base form every 2 h, 6 doses in one day. At approximately 20 h after the last dose, mice were euthanised by inhalation of an overdose of isoflurane. Immediately after blood sampling, the right kidney from each mouse was collected immediately and placed in 10% formalin in 5 mL plastic tubes and the left kidney placed in a pre-weighed 14 mL plastic tubes, weighed again and stored at −20° C. pending homogenization and analysis of polymyxin B and colistin. The frozen kidney samples were thawed, homogenized in 2 mL of Milli-Q water and stored in a −20° C. freezer. The formalin-fixed kidneys were then sent to the Australian Phenomics Network-Histopathology and Organ Pathology (The University of Melbourne, Parkville, Australia) for histological examination. Samples were examined by a pathologist who was blind to the treatment groups.
Lesions were rated as follows: mild acute tubular damage with tubular dilation, prominent nuclei and a few pale tubular casts (Grade 1); severe acute tubular damage with necrosis of tubular epithelial cells and numerous tubular casts (Grade 2); acute cortical necrosis/infarction of tubules and glomeruli with or without papillary necrosis (Grade 3). The grades were given the following scores: grade 1=1, grade 2=4, and grade 3=10. The percentage of area of the kidney slice showing histological damage was scored as follows: <1%=0, 1 to <5%=1, 5 to <10%=2, 10 to <20%=3, 20 to <30%=4, 30 to <40%=5, and >40%=6. The overall kidney histological score was calculated as the product of the percentage score and grade score. These scores were then expressed as a semiquantitative score (Kidney Histological Score) on a scale of 0 to +5 for renal histological changes. These scores were assigned as follows: SQS 0=no significant change (overall score, <1); SQS +1=mild damage (overall score, 1 to <15); SQS +2=mild to moderate damage (overall score, 15 to <30); SQS +3=moderate damage (overall score, 30 to <45); SQS +4=moderate to severe damage (overall score, 45 to <60); and SQS +5=severe damage (overall score, ≥60) (Yousef, J., et al., (2011) Antimicrob. Agents and Chemother. 55 (9), 4044-4049).
Any compound with a kidney histological score of ≤+1.0 is considered to have a low nephrotoxicity in this model.

[1] = tested on: Klebsiella pneumoniae Kp BM1; format: cell-based; details: K. pneumoniae Kp BM1; CAMHB broth microdilution
Method in brief: (§1)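 Broth microdilution MIC per CLSI in cation-adjusted Mueller-Hinton broth, lipopeptides tested as TFA salts. Polymyxin B sulphate served as control.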

[2] = tested on: Klebsiella pneumoniae FADDI-KP032; format: cell-based; details: K. pneumoniae FADDI-KP032; CAMHB broth microdilution
Method in brief: (§2)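 Broth microdilution, CAMHB, per CLSI M100-S24; lipopeptides as TFA salts; polymyxin B sulphate control. Read-out: MIC. Strains are polymyxin-susceptible; PA022 and AB034 are MDR clinical isolates.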

[3] = tested on: Pseudomonas aeruginosa ATCC 27853; format: cell-based; details: P. aeruginosa ATCC 27853; CAMHB broth microdilution
Method in brief: as §2

[4] = tested on: Klebsiella pneumoniae FADDI-KP022; format: cell-based; details: K. pneumoniae FADDI-KP022; CAMHB broth microdilution
Method in brief: as §2

[5] = tested on: Pseudomonas aeruginosa FADDI-PA022; format: cell-based; details: P. aeruginosa FADDI-PA022; CAMHB broth microdilution
Method in brief: as §2

[6] = tested on: Enterobacter cloacae FADDI-EC001; format: cell-based; details: E. cloacae FADDI-EC001; CAMHB broth microdilution
Method in brief: as §1

[7] = tested on: Enterobacter cloacae FADDI-EC003; format: cell-based; details: E. cloacae FADDI-EC003; CAMHB broth microdilution
Method in brief: as §2

[8] = tested on: Pseudomonas aeruginosa FADDI-PA01; format: cell-based; details: P. aeruginosa FADDI-PA01; CAMHB broth microdilution
Method in brief: as §2

[9] = tested on: Acinetobacter baumannii FADDI-AB034; format: cell-based; details: A. baumannii FADDI-AB034; CAMHB broth microdilution
Method in brief: as §2

[10] = tested on: Pseudomonas aeruginosa FADDI-PA038; format: cell-based; details: P. aeruginosa FADDI-PA038; CAMHB broth microdilution
Method in brief: as §2

[11] = tested on: Enterobacter cloacae FADDI-EC006; format: cell-based; details: E. cloacae FADDI-EC006; CAMHB broth microdilution
Method in brief: as §2

[12] = tested on: Acinetobacter baumannii ATCC 17978; format: cell-based; details: A. baumannii ATCC 17978; CAMHB broth microdilution
Method in brief: as §2

[13] = tested on: Acinetobacter baumannii FADDI-AB030; assay: microbe, parasite or virus in culture; format: cell-based; details: A. baumannii FADDI-AB030; CAMHB broth microdilution
Method in brief: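 Lipopeptide TFA salts tested against the multidrug-resistant clinical isolate by CLSI (M100-S24) broth microdilution in cation-adjusted Mueller-Hinton broth, with polymyxin B sulphate as control; MIC read.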

CC[C@@H]1NC(=O)[C@@H](CC(C)C)NC(=O)[C@H](CCN)NC(=O)[C@@H](NC(=O)[C@H](CN)NC(=O)[C@@H](NC(=O)[C@H](CCN)NC(=O)c2ccc(C(F)(F)F)cn2)[C@@H](C)O)CCNC(=O)[C@H]([C@@H](C)O)NC(=O)[C@H](CCN)NC(=O)[C@H](CCN)NC1=O [Compound 38] (X14-[Dab]T[Dap][Dab][Dab][dL][Abu][Dab][Dab]T; lactam 4-C)
Max Overall Kidney Histological Score (mouse kidney; kidney ~20 h after last dose): 0.0
Max Kidney Histological Score (mouse kidney; semiquantitative score 0 to +5): 0 (SQS 0=no significant change (overall score, <1))
Minimum inhibitory concentration [1]: <0.125 mg/L
Minimum inhibitory concentration [2]: <0.125 mg/L
Minimum inhibitory concentration [3]: 0.25 mg/L (≈ 0.215 µM)
Minimum inhibitory concentration [4]: 0.25 mg/L (≈ 0.215 µM)
Minimum inhibitory concentration [5]: 0.25 mg/L (≈ 0.215 µM)
Minimum inhibitory concentration [6]: <0.125 mg/L
Minimum inhibitory concentration [7]: 0.25 mg/L (≈ 0.215 µM)
Minimum inhibitory concentration [8]: 0.25 mg/L (≈ 0.215 µM)
Minimum inhibitory concentration [9]: 0.25 mg/L (≈ 0.215 µM)
Minimum inhibitory concentration [10]: 1 mg/L (≈ 0.862 µM)
Minimum inhibitory concentration [11]: 0.25 mg/L (≈ 0.215 µM)
Minimum inhibitory concentration [12]: 1 mg/L (≈ 0.862 µM)
Minimum inhibitory concentration [13]: 1 mg/L (≈ 0.862 µM)
